Test results reported in ChEMBL document CHEMBL5678818, “Discovery of potent SOS1 inhibitors that block RAS activation via disruption of the RAS-SOS1 interaction” (Proc Natl Acad Sci U S A, 2019).

What was measured:
[1] = target: Platelet-derived growth factor receptor alpha (Homo sapiens) (UniProt P16234); assay: Inhibition of PDGFRA (unknown origin) assessed as residual activity at 1000 nM by KINOMEscan analysis relative to control
[2] = test system: Phosphatidylinositol 4,5-bisphosphate 3-kinase catalytic subunit alpha isoform (Homo sapiens), P42336 [Q546K]; assay: Inhibition of PIK3CA Q546K mutant (unknown origin) assessed as residual activity at 1000 nM by KINOMEscan analysis relative to control
Sequence of Phosphatidylinositol 4,5-bisphosphate 3-kinase catalytic subunit alpha isoform (Homo sapiens), P42336 [Q546K] (P42336 whole entry Q546K, canonical isoform): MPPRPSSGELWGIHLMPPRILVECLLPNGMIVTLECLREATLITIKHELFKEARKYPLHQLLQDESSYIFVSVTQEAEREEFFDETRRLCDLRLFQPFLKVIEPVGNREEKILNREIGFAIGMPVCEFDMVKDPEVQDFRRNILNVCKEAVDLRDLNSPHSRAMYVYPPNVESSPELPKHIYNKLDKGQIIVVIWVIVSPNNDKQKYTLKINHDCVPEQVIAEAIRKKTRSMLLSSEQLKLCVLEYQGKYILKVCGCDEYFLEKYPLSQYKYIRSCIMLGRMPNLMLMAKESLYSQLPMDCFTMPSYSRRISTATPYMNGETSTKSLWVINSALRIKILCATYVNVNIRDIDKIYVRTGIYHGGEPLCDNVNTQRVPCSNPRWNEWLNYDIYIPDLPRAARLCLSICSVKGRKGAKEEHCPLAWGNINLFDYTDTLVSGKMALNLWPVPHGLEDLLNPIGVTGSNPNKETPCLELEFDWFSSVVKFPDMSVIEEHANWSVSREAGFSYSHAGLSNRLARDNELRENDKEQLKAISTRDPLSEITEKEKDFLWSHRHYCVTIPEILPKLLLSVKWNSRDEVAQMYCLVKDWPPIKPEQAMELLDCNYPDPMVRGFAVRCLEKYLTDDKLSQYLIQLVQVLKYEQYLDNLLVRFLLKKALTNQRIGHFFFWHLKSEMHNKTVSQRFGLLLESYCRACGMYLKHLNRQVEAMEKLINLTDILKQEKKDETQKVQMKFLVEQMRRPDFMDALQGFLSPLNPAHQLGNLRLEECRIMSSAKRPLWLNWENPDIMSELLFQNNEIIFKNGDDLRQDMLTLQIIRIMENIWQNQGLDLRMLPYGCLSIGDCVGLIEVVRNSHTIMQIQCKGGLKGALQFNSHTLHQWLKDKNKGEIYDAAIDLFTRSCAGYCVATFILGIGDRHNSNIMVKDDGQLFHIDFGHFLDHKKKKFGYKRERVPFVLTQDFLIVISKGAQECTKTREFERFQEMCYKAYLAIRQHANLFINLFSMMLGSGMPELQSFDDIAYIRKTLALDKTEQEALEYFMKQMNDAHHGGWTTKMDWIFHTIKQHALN

[3] = target: T1, Serine/threonine-protein kinase Nek11 (Homo sapiens) (UniProt Q8NG66); assay: Inhibition of NEK11 (unknown origin) assessed as residual activity at 1000 nM by KINOMEscan analysis relative to control
T1 sequence (whole entry): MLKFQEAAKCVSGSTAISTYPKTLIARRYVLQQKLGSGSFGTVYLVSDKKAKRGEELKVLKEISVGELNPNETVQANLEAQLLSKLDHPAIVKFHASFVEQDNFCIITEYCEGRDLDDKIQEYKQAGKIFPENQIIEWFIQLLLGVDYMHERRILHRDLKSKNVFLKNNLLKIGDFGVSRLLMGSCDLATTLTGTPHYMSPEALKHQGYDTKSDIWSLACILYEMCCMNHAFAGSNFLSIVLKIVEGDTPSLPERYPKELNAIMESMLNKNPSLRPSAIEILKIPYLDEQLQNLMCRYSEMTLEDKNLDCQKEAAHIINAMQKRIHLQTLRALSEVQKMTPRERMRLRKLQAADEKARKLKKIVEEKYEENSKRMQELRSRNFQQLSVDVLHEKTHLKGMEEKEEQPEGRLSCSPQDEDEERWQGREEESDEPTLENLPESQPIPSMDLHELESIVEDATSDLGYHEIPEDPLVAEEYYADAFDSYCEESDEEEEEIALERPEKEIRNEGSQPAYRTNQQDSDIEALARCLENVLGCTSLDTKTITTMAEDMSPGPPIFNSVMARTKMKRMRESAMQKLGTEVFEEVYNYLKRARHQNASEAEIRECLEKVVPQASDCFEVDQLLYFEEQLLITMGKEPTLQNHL

[4] = target: T2, Son of sevenless homolog 1 (Homo sapiens) (UniProt Q07889); assay: Binding affinity to N-terminal His10-tagged wild-type recombinant human SOS1 catalytic domain (564 to 1049 residues) expressed in Escherichia coli assessed as change in entropy by ITC analysis
T2 sequence (whole entry): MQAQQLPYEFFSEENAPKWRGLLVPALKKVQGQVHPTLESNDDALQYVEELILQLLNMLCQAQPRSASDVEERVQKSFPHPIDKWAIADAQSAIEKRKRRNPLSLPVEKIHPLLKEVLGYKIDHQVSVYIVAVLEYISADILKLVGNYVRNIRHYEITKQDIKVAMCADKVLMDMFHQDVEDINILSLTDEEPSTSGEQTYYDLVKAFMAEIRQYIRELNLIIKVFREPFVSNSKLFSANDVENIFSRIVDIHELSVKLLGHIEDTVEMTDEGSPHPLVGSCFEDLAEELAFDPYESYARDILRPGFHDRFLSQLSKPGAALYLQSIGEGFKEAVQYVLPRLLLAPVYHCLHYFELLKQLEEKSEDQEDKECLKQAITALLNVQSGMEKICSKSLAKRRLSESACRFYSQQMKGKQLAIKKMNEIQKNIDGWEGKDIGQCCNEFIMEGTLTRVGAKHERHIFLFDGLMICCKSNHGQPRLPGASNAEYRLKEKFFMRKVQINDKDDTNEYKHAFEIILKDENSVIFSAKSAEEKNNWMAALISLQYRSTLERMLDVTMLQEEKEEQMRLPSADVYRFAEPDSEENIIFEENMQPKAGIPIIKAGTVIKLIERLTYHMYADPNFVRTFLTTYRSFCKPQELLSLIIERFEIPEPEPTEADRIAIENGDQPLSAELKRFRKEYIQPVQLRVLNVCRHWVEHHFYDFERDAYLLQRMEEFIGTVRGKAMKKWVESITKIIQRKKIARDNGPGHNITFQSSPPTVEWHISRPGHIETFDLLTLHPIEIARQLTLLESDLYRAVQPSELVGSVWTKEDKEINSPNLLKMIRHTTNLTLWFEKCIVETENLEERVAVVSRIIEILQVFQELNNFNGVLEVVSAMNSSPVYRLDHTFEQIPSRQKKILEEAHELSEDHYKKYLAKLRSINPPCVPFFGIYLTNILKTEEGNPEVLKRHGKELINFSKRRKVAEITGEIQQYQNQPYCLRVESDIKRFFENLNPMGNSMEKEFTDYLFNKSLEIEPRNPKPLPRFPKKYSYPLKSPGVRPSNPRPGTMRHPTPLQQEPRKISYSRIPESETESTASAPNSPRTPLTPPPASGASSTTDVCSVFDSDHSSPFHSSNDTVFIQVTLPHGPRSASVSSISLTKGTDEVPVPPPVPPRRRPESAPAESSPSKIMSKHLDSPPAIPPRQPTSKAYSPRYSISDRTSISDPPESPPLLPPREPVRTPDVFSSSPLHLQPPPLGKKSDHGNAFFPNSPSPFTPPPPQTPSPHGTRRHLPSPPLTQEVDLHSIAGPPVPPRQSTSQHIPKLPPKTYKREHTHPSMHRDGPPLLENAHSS

Sequence of Platelet-derived growth factor receptor alpha (Homo sapiens) (P16234 whole entry, canonical isoform): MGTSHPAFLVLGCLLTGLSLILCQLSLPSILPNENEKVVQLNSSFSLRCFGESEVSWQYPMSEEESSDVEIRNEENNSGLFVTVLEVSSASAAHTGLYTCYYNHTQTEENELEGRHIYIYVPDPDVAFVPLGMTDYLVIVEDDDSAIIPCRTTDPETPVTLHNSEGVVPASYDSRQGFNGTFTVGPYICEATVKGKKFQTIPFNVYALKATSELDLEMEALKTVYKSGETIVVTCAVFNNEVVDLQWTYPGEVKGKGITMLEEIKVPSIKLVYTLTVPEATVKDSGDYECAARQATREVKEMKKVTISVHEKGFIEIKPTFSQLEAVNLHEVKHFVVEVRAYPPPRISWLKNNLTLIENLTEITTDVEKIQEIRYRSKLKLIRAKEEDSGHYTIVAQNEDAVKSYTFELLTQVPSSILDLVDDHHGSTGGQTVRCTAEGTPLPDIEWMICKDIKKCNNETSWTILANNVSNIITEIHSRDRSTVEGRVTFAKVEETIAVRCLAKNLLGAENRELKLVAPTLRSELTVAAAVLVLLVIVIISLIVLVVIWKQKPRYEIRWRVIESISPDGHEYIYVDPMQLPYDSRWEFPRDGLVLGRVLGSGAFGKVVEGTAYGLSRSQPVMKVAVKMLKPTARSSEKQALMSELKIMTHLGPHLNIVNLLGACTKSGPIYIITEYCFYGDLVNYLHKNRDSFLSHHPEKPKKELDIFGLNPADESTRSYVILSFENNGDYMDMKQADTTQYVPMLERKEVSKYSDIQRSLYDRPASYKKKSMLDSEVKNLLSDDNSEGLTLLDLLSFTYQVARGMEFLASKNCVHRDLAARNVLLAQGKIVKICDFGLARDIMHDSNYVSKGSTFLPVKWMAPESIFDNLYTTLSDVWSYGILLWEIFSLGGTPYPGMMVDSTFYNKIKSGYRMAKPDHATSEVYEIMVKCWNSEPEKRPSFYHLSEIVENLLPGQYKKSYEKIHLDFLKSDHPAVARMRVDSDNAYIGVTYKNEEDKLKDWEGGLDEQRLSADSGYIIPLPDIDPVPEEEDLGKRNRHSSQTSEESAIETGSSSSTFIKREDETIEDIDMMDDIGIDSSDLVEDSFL

## COc1cc2nc(C)nc(N[C@H](C)c3cccc(-c4cn[nH]c4)c3)c2cc1OC
[1]
  Activity: 100%
[2]
  Activity: 87%
[3]
  Activity: 93%

## COc1cc2ncnc(N[C@H](C)c3cccc4ccccc34)c2cc1OC
[1]
  Activity: 100%
[2]
  Activity: 83%
[3]
  Activity: 81%
[4]
  -TdeltaS: 5.5 kcal/mol

## CNCc1ccccc1-c1csc([C@@H](C)Nc2nc(C)nc3cc(OC)c(OC)cc23)c1 [BAY-293]
[4]
  -TdeltaS: 5.5 kcal/mol
